Data taken from US20230278996A1, “YKL-40 INHIBITORS AND THEIR THERAPEUTIC APPLICATIONS” (Molecure S.A., priority 2022, published 2023).
Counter-ions that a name gives are not always drawn.

Biological target: YKL-40 (Homo sapiens (Human), UniProt P36222)
Assay: YKL-40:4 assay, competitive chitin binding site AlphaScreen
Conditions: competition with biotinylated compound 4 (20 nM), YKL-40-histag 2.5 nM

YKL-40, sequence (P36222 22-383): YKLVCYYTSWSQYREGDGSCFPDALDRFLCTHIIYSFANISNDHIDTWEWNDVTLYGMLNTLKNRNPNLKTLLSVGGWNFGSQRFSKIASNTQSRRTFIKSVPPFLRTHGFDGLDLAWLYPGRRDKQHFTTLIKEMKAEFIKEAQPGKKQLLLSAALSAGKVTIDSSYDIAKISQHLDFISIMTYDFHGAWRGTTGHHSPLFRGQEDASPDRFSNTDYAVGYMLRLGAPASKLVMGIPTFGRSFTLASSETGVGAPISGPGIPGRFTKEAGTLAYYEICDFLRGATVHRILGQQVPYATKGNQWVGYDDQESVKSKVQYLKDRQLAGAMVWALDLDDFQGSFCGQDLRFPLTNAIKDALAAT

| SMILES | IC50 |
| --- | --- |
| C[C@H]1CN(C2CCN(c3ncccc3C(F)(F)F)CC2)[C@@H](Cc2ccc(Cl)cc2)CO1 [compound 49, (2S,5S)-5-(4-chlorobenzyl)-2-methyl-4-(1-(3-(trifluoromethyl)pyridin-2-yl)-piperidin-4-yl)morpholine 2,2,2-trifluoroacetate] | 10000 to 100000 nM |
| CN1C[C@H](Cc2ccc(Cl)cc2)N(C2CCN(c3cc(Cl)ccn3)CC2)C[C@@H]1CO [compound 50, ((2R,5S)-5-(4-chlorobenzyl)-4-(1-(4-chloropyridin-2-yl)piperidin-4-yl)-1-methyl-piperazin-2-yl)methanol] | < 100 nM |
| C[C@H]1CN(C2C[C@H]3CC[C@@H](C2)N3c2cc(Cl)ccn2)[C@@H](Cc2ccc(Cl)cc2)CO1 (stereo partly drawn) [compound 58, (2S,5S)-5-(4-chlorobenzyl)-4-((1R,5S)-8-(4-chloropyridin-2-yl)-8-azabicyclo[3.2.1]octan-3-yl)-2-methylmorpholine 2,2,2-trifluoroacetate] | > 100000 nM |
| CO[C@@H]1CN(c2cc(Cl)ccn2)CC[C@@H]1N1C[C@H](C)OC[C@@H]1Cc1ccc(Cl)cc1 [compound 59, (2S,5S)-5-(4-chlorobenzyl)-4-((3R,4S)-1-(4-chloropyridin-2-yl)-3-methoxypiperidin-4-yl)-2-methylmorpholine 2,2,2-trifluoroacetate] | 1000 to 10000 nM |
| CO[C@H]1CN(c2cc(Cl)ccn2)CC[C@@H]1N1C[C@H](C)OC[C@@H]1Cc1ccc(Cl)cc1 [compound 60, (2S,5S)-5-(4-chlorobenzyl)-4-((3S,4S)-1-(4-chloropyridin-2-yl)-3-methoxypiperidin-4-yl)-2-methylmorpholine 2,2,2-trifluoroacetate] | 10000 to 100000 nM |
| CC(C)[C@H]1CN(C2CCN(c3ccccn3)CC2)[C@@H](Cc2ccc(Cl)cc2)CN1C [compound 62, (2S,5S)-2-(4-chlorobenzyl)-5-isopropyl-4-methyl-1-(1-(pyridin-2-yl)piperidin-4-yl)piperazine 2,2,2-trifluoroacetate] | < 100 nM |
| CN1CCN(C2CCN(c3ccccn3)CC2)[C@@H](Cc2ccc(Cl)cc2)C1 [compound 64, (S)-2-(4-chlorobenzyl)-4-methyl-1-(1-(pyridin-2-yl)piperidin-4-yl)piperazine 2,2,2-trifluoroacetate] | 100 to 1000 nM |
| C[C@H]1CN(C2CCN(c3ccnc(Cl)n3)CC2)[C@@H](Cc2ccc(Cl)cc2)CO1 [compound 66, (2S,5S)-5-(4-chlorobenzyl)-4-(1-(2-chloropyrimidin-4-yl)piperidin-4-yl)-2-methylmorpholine] | > 100000 nM |
| C[C@H]1CN(C2CCN(c3ccnc(N)n3)CC2)[C@@H](Cc2ccc(Cl)cc2)CO1 [compound 67, 4-(4-((2S,5S)-5-(4-chlorobenzyl)-2-methylmorpholino)piperidin-1-yl)pyrimidin-2-amine 2,2,2-trifluoroacetate] | > 100000 nM |
| CN(C)C(=O)OC[C@H]1CN(C2CCN(c3ncccn3)CC2)[C@@H](Cc2ccc(Cl)cc2)CO1 [compound 70, ((2R,5S)-5-(4-chlorobenzyl)-4-(1-(pyrimidin-2-yl)piperidin-4-yl)morpholin-2-yl)methyl dimethylcarbamate 2,2,2-trifluoroacetate] | 1000 to 10000 nM |
| CN1CCN(C[C@H]2CN(C3CCN(c4ncccn4)CC3)[C@@H](Cc3ccc(Cl)cc3)CO2)CC1 [compound 71, (2S,5S)-5-(4-chlorobenzyl)-2-((4-methylpiperazin-1-yl)methyl)-4-(1-(pyrimidin-2-yl)piperidin-4-yl)morpholine 2,2,2-trifluoroacetate] | 1000 to 10000 nM |
| CN(C)CCN(C)C[C@H]1CN(C2CCN(c3ncccn3)CC2)[C@@H](Cc2ccc(Cl)cc2)CO1 [compound 72, N^1-(((2S,5S)-5-(4-chlorobenzyl)-4-(1-(pyrimidin-2-yl)piperidin-4-yl)morpholin-2-yl)methyl)-N^1,N^2,N^2-trimethylethane-1,2-diamine 2,2,2-trifluoroacetate] | 1000 to 10000 nM |
| O[C@@H]1CCN(C[C@H]2CN(C3CCN(c4ncccn4)CC3)[C@@H](Cc3ccc(Cl)cc3)CO2)C1 [compound 73, (R)-1-(((2S,5S)-5-(4-chlorobenzyl)-4-(1-(pyrimidin-2-yl)piperidin-4-yl)morpholin-2-yl)methyl)pyrrolidin-3-ol 2,2,2-trifluoroacetate] | 1000 to 10000 nM |
| O[C@H]1CCN(C[C@H]2CN(C3CCN(c4ncccn4)CC3)[C@@H](Cc3ccc(Cl)cc3)CO2)C1 [compound 74, (S)-1-(((2S,5S)-5-(4-chlorobenzyl)-4-(1-(pyrimidin-2-yl)piperidin-4-yl)morpholin-2-yl)methyl)pyrrolidin-3-ol 2,2,2-trifluoroacetate] | 1000 to 10000 nM |
| CC(=O)NC[C@H]1CN(C2CCN(c3ncccn3)CC2)[C@@H](Cc2ccc(Cl)cc2)CO1 [compound 75, N-(((2S,5S)-5-(4-chlorobenzyl)-4-(1-(pyrimidin-2-yl)piperidin-4-yl)morpholin-2-yl)methyl)acetamide 2,2,2-trifluoroacetate] | 100 to 1000 nM |
| O=C1c2ccccc2C(=O)N1C[C@H]1CN(C2CCN(c3ncccn3)CC2)[C@@H](Cc2ccc(Cl)cc2)CO1 [compound 76, 2-(((2R,5S)-5-(4-chlorobenzyl)-4-(1-(pyrimidin-2-yl)piperidin-4-yl)morpholin-2-yl)methyl)isoindoline-1,3-dione dihydrochloride] | > 100000 nM |

| SMILES | IC50 |
| --- | --- |
| O=C1CCC(=O)N1C[C@H]1CN(C2CCN(c3ncccn3)CC2)[C@@H](Cc2ccc(Cl)cc2)CO1 [compound 77, 1-(((2R,5S)-5-(4-chlorobenzyl)-4-(1-(pyrimidin-2-yl)piperidin-4-yl)morpholin-2-yl)methyl)pyrrolidine-2,5-dione 2,2,2-trifluoroacetate] | 1000 to 10000 nM |
| O=C1CNC(=O)N1C[C@H]1CN(C2CCN(c3ncccn3)CC2)[C@@H](Cc2ccc(Cl)cc2)CO1 [compound 78, 3-(((2R,5S)-5-(4-chlorobenzyl)-4-(1-(pyrimidin-2-yl)piperidin-4-yl)morpholin-2-yl)methyl)imidazolidine-2,4-dione 2,2,2-trifluoroacetate] | 1000 to 10000 nM |
| Clc1ccc(C[C@H]2COc3ccccc3CN2C2CCN(c3ccccn3)CC2)cc1 [compound 81, (S)-3-(4-chlorobenzyl)-4-(1-(pyridin-2-yl)piperidin-4-yl)-2,3,4,5-tetrahydrobenzo[f][1,4]oxazepine hydrochloride] | > 100000 nM |
| CN1CCN(C[C@H]2CN(C3CCN(c4cc(Cl)ccn4)CC3)[C@@H](Cc3ccc(Cl)cc3)CN2C)CC1 [compound 83, (2S,5S)-2-(4-chlorobenzyl)-1-(1-(4-chloropyridin-2-yl)piperidin-4-yl)-4-methyl-5-((4-methylpiperazin-1-yl)methyl)piperazine 2,2,2-trifluoroacetate] | < 100 nM |
| CN1C[C@H](Cc2ccc(Cl)cc2)N(C2CCN(c3cc(Cl)ccn3)CC2)C[C@@H]1COc1ccc2ccccc2c1 [compound 84, (2S,5R)-2-(4-chlorobenzyl)-1-(1-(4-chloropyridin-2-yl)piperidin-4-yl)-4-methyl-5-((naphthalen-2-yloxy)methyl)piperazine 2,2,2-trifluoroacetate] | > 100000 nM |
| C[C@H]1CN(C2CCN(c3ccccn3)C(=O)C2)[C@@H](Cc2ccc(Cl)cc2)CO1 (stereo partly drawn) [compound 85, 4-((2S,5S)-5-(4-chlorobenzyl)-2-methylmorpholino)-1-(pyridin-2-yl)piperidin-2-one 2,2,2-trifluoroacetate] | 10000 to 100000 nM |
| Clc1ccc(C[C@H]2COCCN2C2CCN(c3ccccn3)CC2)cc1 [compound 88, (S)-3-(4-chlorobenzyl)-4-(1-(pyridin-2-yl)piperidin-4-yl)morpholine 2,2,2-trifluoroacetate] | 100 to 1000 nM |
| COC1(C)CCN(C2CCN(c3ccccn3)CC2)[C@@H](Cc2ccc(Cl)cc2)C1 (stereo partly drawn) [compound 91, (2S)-2-(4-chlorobenzyl)-4-methoxy-4-methyl-1′-(pyridin-2-yl)-1,4′-bipiperidine 2,2,2-trifluoroacetate] | < 100 nM |
| CC1(O)CCN(C2CCN(c3ccccn3)CC2)[C@@H](Cc2ccc(Cl)cc2)C1 (stereo partly drawn) [compound 92, (2S)-2-(4-chlorobenzyl)-4-methyl-1′-(pyridin-2-yl)-[1,4′-bipiperidin]-4-ol 2,2,2-trifluoroacetate] | < 100 nM |
| CC[C@H]1CN(C2CCN(c3ccccn3)CC2)[C@@H](Cc2ccc(Cl)cc2)CN1C [compound 93, (2S,5S)-2-(4-chlorobenzyl)-5-ethyl-4-methyl-1-(1-(pyridin-2-yl)piperidin-4-yl)piperazine 2,2,2-trifluoroacetate] | 10000 to 100000 nM |
| CC[C@H]1CN(C2CCN(c3ccccn3)CC2)[C@@H](Cc2ccc(Cl)cc2)CN1CC(C)C [compound 94, (2S,5S)-2-(4-chlorobenzyl)-5-ethyl-4-isobutyl-1-(1-(pyridin-2-yl)piperidin-4-yl)piperazine 2,2,2-trifluoroacetate] | 1000 to 10000 nM |
| COC(C)(C)CN1C[C@H](Cc2ccc(Cl)cc2)N(C2CCN(c3ccccn3)CC2)C[C@@H]1CC(C)C [compound 100, (2S,5S)-2-(4-chlorobenzyl)-5-isobutyl-4-(2-methoxy-2-methylpropyl)-1-(1-(pyridin-2-yl)piperidin-4-yl)piperazine 2,2,2-trifluoroacetate] | 1000 to 10000 nM |
| C[C@H]1CN(C2CCN(c3ccccn3)CC2)[C@@H](Cc2ccc(Cl)cc2)CN1CC(=O)N(C)C [compound 101, 2-((2S,5S)-5-(4-chlorobenzyl)-2-methyl-4-(1-(pyridin-2-yl)piperidin-4-yl)piperazin-1-yl)-N,N-dimethylacetamide] | 100 to 1000 nM |
| C[C@@H](O)CN1C[C@H](Cc2ccc(Cl)cc2)N(C2CCN(c3ccccn3)CC2)C[C@@H]1C [compound 102, (R)-1-((2S,5S)-5-(4-chlorobenzyl)-2-methyl-4-(1-(pyridin-2-yl)piperidin-4-yl)piperazin-1-yl)propan-2-ol 2,2,2-trifluoroacetate] | 100 to 1000 nM |
| C[C@H]1CN(C2CCN(c3ccccn3)CC2)[C@@H](Cc2ccc(Cl)cc2)CN1CC(=O)NC1CC1 [compound 103, 2-((2S,5S)-5-(4-chlorobenzyl)-2-methyl-4-(1-(pyridin-2-yl)piperidin-4-yl)piperazin-1-yl)-N-cyclopropylacetamide 2,2,2-trifluoroacetate] | 100 to 1000 nM |
